Data from US7531651B2, “Benzenesulphonate salt of a morpholine urea derivative for use as a CCR-3 antagonist in the treatment of inflammatory conditions” (Glaxo Group Limited, priority 2002, dated 2009).

Key:
Hygroscopicity = format: physicochemical
[1] = Stability in aqueous solution (impurity profiles); conditions: presence and absence of light, 8 days, pH range 2-10
Excerpt: Thus a convenient method for determining the stability of the compounds of the invention in aqueous solution involves determining the impurity profiles of an aqueous solution of the test compound at known conditions of temperature and over known periods of time.

CCR-3 = target: T1, CCR-3 (Homo sapiens, UniProt P51677); assay: CCR-3 competition binding SPA ([125I]eotaxin); conditions: membranes from K562 cells stably expressing CCR-3; 20 pM [125I]eotaxin; read-out: pIC50 (inhibition of [125I]eotaxin binding) (converted)
T1 construct: expressed in transfected cells
T1 sequence (P51677 1-355): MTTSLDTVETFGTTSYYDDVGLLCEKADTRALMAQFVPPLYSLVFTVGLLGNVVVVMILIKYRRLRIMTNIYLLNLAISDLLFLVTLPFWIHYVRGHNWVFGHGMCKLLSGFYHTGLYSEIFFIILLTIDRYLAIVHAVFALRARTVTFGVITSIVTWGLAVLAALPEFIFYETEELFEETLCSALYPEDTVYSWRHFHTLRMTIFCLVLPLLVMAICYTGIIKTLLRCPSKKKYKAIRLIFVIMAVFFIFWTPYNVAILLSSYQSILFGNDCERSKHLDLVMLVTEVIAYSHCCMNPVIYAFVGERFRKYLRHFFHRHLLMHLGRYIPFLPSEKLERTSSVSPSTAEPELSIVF
Protocol: A CCR-3 competition binding SPA (scintillation proximity assay) was used to assess the affinity of novel compounds for CCR-3. Membranes prepared from K562 cells stably expressing CCR-3 (2.5 μg/well) were mixed with 0.25 mg/well wheat-germ agglutinin SPA beads (Amersham) and incubated in binding buffer (HEPES 50 mM, CaCl2 1 mM, MgCl2 5 mM, 0.5% BSA) at 4° C. for 1.5 hr. Following incubation, 20 pM of [^125I] eotaxin (Amersham) and increasing concentrations of compound (1 pM to 30 μM) were added and incubated in a 96 well plate for 2 hr at 22° C. then counted on a Microbeta plate counter. The total assay volume was 100 μl. Competition binding data were analysed by fitting the data with a four parameter logistic equation. Data are presented as the mean pIC50 values (negative logarithm of the concentration of compound which inhibits [^125I]eotaxin binding by 50%) from at least two experiments.

[2] = Solubility in water versus free base
eosinophils = assay: Eosinophil chemotaxis assay (eotaxin-induced); format: cell-based; conditions: human peripheral blood eosinophils; agonist eotaxin at EC80
Protocol: (b) Eosinophil Chemotaxis Assay.
Compounds were evaluated for their inhibitory effect on eosinophil chemotaxis. Eosinophils were purified from human peripheral blood by standard CD16 cell depletion using a Miltenyi cell separation column and a magnetic Super Macs magnet as previously described (Motegi & Kita, 1998; J. Immunology. 161:4340-6). Cells were re-suspended in RPMI 1640/10% FCS solution and incubated with calcein-AM (Molecular Probes) at 37° C. for 30 mins. Following incubation, the eosinophils were centrifuged at 400 g for 5 min and re-suspended in RPMI/FCS at 2.2 million/ml. Cells were then incubated in the presence of increasing concentration of compounds (1 μM to 30 μM) at 37° C. for 30 mins. For control responses cells were incubated with RPMI/FCS only. The agonist eotaxin (either a concentration response curve or for the functional inhibition curves an EC80 concentration) was added to the lower chamber of a 96 well chemotaxis plate (5 μm filter: Receptor Technologies). […] Cells remaining on top of the chemotaxis filter were removed and the number of eosinophils which had migrated were quantified by reading the plate on a fluorescent plate reader. Inhibition curves for the effect of compounds on eosinophil chemotaxis were analysed by fitting the data with a four parameter logistic equation. […]

[3] = Solid form storage stability tests (temperature/humidity/light)
Excerpt: The stability of the compound of the invention may be determined using conventional quantitative analytical methods: For example the stability of the compound in the solid form may be determined by using accelerated stability tests such as differential scanning calorimetry (DSC), thermogravimetric analysis (TGA) and isothermal testing at elevated temperatures including conventional storage tests wherein the test compound is stored under controlled conditions of temperature and humidity over known periods of time. Quantitative analysis of the test compounds, against appropriate reference standards before, during and after the storage period allows the stability of the test compound to be determined.

With NC(=O)c1ccc(CNC(=O)NC[C@H]2CN(Cc3ccc(Cl)c(Cl)c3)CCO2)cc1.O.O.O=S(=O)(O)c1ccccc1 [compound of the invention, 4-({[({[(2S)-4-(3,4-dichlorobenzyl)morpholin-2-yl]methyl}amino)carbonyl]amino}methyl)benzamide benzenesulfonate dihydrate] the hygroscopicity (Hygroscopicity) was “non-hygroscopic”, the aqueous stability [1] was “good aqueous stability” and the IC50 (CCR-3) was < 10 µM. For the same compound, the “solubility in water compared with the free base” value [2] was “more soluble in water than the corresponding free base”, the “fpKi (functional pKi)” value (eosinophils) was “greater than 5” and the “degradation on storage (solid form)” value ([3]; 50° C./ambient conditions, 25 days) was “no significant degradation”. For the same compound, the “degradation on storage (solid form)” value ([3]; light cabinet, ambient conditions, 14 days) was “no significant degradation”.
